Source: article PMC12257394, “Design, Synthesis, and Biological Evaluation of Ferrocenyl–Cyclo-(Gly‑L‑Pro) Hybrids Sensitizing Multidrug-Resistant Cancer Cells to Anticancer Agents” (ACS Medicinal Chemistry Letters, 2025)

Assays:
Type in all cases: cell-based, human
[1] = Neutral red uptake viability assay, SW620C; conditions: human, SW620C cells (cisplatin-resistant); SW620C, 72 h, n = 3; read-out: Cytotoxic activity IC50 (95% CI)
Experimental: (§1) The normal lung fibroblast MRC-5 and colorectal adenocarcinoma SW620 cell lines used in this experiment were purchased from American Type Culture Collection (USA) via LGC […]
(§2) described previously.10, 11 All cells were cultured under standard conditions (37°C, 5% CO2, 100% humidity) in high-glucose DMEM supplemented with GlutaMaxTM, HEPES (ThermoFisher Scientific, USA), and 10% fetal bovine serum (EURx, Poland). Cells were routinely tested for potential Mycoplasma contamination using the MycoProbe Mycoplasma Detection kit (R&D System, USA).
(§3) In total, 104 cells in 100 µL of complete medium were plated per well of a 96-well plate and left overnight to allow cells to adhere to the surface. Then, the cells were exposed to a desired concentration of tested compound(s). Stock solutions were prepared in DMSO and used immediately. The final DMSO concentration was constant and nontoxic (0.1% v/v). After 70-h incubation, neutral red was added to the final concentration of 1 mM. After another 2 h, the medium was aspirated, and cells were washed twice with PBS. Dye was released using 100 µL of a solubilizer (1% acetic acid in 50% ethanol) on an orbital shaker (10 min). Absorbance was read at 540 nm using EnVision Multilabel Plate Reader (Perkin Elmer, USA). Results were expressed as % of control. The IC50 parameters were calculated using GraphPad Prism version 10 (GraphPad Software, Boston, Massachusetts USA). […]
IC₅₀ values were determined in […]
(§4) All experiments were performed in triplicate (n = 3).

[2] = Neutral red uptake viability assay, SW620D; conditions: human, SW620D cells (doxorubicin-resistant), 72 h, n = 3, read-out: Cytotoxic activity IC50 (95% CI)
Experimental: (§5) In general, compounds 4a–e exerted little or no cytotoxic effect on either SW620 or multidrug-resistant sublines even at 10 μM, with the remarkable exception of SW620C (cisplatin-selected variant of SW620) cells, which turned out to be relatively susceptible toward ferrocenyl 4a–c. […] This trend may reflect steric or electronic contributions to cellular uptake or interaction with intracellular targets. […] However, since E/Z isomeric data are currently available only for compound 4c, this hypothesis requires validation. To quantify this effect, IC50 values were determined (Table ). […]
as §1
as §2, with “Standards. Multidrug-resistant variants of SW620 cells were developed in our laboratory as described” for “described”
(§6) In total, 104 cells in 100 µL of complete medium were plated per well of a 96-well plate and left overnight to allow cells to adhere to the surface. Then, the cells were exposed to a desired concentration of tested compound(s). Stock solutions were prepared in DMSO and used immediately. The final DMSO concentration was constant and nontoxic (0.1% v/v). After 70-h incubation, neutral red was added to the final concentration of 1 mM. After another 2 h, the medium was aspirated, and cells were washed twice with PBS. Dye was released using 100 µL of a solubilizer (1% acetic acid in 50% ethanol) on an orbital shaker (10 min). Absorbance was read at 540 nm using EnVision Multilabel Plate Reader (Perkin Elmer, USA). Results were expressed as % of control. The IC50 parameters were calculated using GraphPad Prism version 10 (GraphPad Software, Boston, Massachusetts USA).
(§7) The enhancement of reversal potency (ERP) value determination
(§8) For MDR reversal assays, cytotoxic agents were co-administered with compounds 4a–4e at equimolar concentrations in a range of 10 nM to 100 µM. IC₅₀ values were determined in ABCB1-overexpressing SW620 cell line variants. The enhancement of reversal potency (ERP) was calculated using the following formula: ERP = IC₅₀(drug)MDR / IC₅₀(drug + compound)MDR. All experiments were performed in triplicate (n = 3).

[3] = Neutral red uptake viability assay, SW620M; conditions: human, SW620M cells (methotrexate-resistant), 72 h, n = 3, read-out: Cytotoxic activity IC50 (95% CI)
Experimental: as §5, §1
as §2, with “Standards. Multidrug-resistant variants of SW620 cells were developed in our laboratory as described” for “described”
as §3, §4

[4] = Neutral red uptake viability assay, SW620V; conditions: human, SW620V cells (vincristine-resistant), 72 h, n = 3, read-out: Cytotoxic activity IC50 (95% CI)
Experimental: as §5, §1
as §2, with “Standards. Multidrug-resistant variants of SW620 cells were developed in our laboratory as described” for “described”
as §6, §7, §8

Measured: IC50 at 72 h

O=C1N/C(=C/c2ccccc2)C(=O)N2CCC[C@@H]12 [(S,E)-4e]
> 100 µM: [1] | [2] | [3] | [4]

O=C1N/C(=C\c2ccccc2)C(=O)N2CCC[C@@H]12 [(S,Z)-4e]
> 100 µM: [1] | [2] | [3] | [4]
